Each structure is given as a SMILES string.

p56 lck, sequence (P06239 whole entry, species assumed): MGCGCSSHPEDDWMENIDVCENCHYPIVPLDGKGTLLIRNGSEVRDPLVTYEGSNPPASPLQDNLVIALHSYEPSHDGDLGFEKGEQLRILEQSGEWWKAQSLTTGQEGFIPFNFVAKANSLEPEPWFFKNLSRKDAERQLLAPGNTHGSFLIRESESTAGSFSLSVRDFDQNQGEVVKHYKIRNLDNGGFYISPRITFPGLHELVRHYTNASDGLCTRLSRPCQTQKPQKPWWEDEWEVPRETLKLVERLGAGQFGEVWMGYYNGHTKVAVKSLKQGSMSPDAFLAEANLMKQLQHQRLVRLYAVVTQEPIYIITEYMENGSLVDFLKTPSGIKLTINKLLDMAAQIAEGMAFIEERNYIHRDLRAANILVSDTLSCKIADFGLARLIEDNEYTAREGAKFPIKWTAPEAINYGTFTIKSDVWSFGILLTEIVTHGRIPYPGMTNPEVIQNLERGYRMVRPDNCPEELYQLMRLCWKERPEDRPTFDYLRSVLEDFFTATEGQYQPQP

The target in one test is T1, PTP-1B (Homo sapiens, UniProt P18031).
T1 sequence (P18031 1-435): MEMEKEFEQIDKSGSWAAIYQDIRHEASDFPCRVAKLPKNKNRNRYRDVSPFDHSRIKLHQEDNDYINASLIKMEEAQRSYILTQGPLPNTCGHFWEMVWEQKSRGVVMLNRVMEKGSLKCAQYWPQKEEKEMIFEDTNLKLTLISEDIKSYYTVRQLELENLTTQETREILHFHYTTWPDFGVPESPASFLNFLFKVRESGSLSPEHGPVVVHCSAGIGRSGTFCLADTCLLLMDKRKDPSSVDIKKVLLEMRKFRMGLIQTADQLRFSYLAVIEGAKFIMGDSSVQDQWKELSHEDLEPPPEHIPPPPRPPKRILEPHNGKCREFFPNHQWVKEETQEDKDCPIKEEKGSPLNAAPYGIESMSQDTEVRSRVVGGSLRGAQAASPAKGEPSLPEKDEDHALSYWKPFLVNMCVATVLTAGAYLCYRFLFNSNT
The experiment in a line: PTP-1B inhibition. Format: biochemical. Conditions: % inhibition at 10 micromolar compound. The source says:
(§1) Blanks for a particular enzyme indicate that inhibition was not found.
With `O=C(NCc1ccc(Cl)cc1Cl)c1cc2cc(F)ccc2[nH]1` [Compound 1ss], the “PTP-1B @ 10 μm” value was determined as 12%.

As for `O=C(Nc1ccccc1CO)c1cc2cc(F)ccc2[nH]1` [Compound 1xxx], the “PTP-1B @ 10 μm” value is recorded as 12%.

In the case of `O=C(NCc1cc(C(F)(F)F)ccc1F)c1cc2cc(F)ccc2[nH]1` [Compound 1aaa], the “PTP-1B @ 10 μm” value came to 12%.

Turning to `COc1cc(CNC(=O)c2cc3cc(F)ccc3[nH]2)cc(OC)c1` [Compound 1hhhh], the “PTP-1B @ 10 μm” value stood at 17%.

On to `O=C(NCc1ccc(OCc2ccccc2)c(O)c1)c1cc2cc(F)ccc2[nH]1` [Compound 1jjjj], for which the “PTP-1B @ 10 μm” value was 15%.

In the case of `O=C(NCc1ccccc1Cl)c1cc2cc(F)ccc2[nH]1` [Compound 1yy], the “PTP-1B @ 10 μm” value was determined as 10%.

Take `O=C(NCc1ccc(Cl)cc1)c1[nH]c2ccc(F)cc2c1-c1ccccc1` [Compound 2gg]: the “PTP-1B @ 10 μm” value is on record as 12%.

As to `COc1ccc(NC(=O)c2cc3cc(F)ccc3[nH]2)cc1CO` [Compound 1cccc], the “PTP-1B @ 10 μm” value is 20%.

With `O=C(NCc1ccc(F)cc1)c1cc2cc(F)ccc2[nH]1` [Compound 1uuu], the “PTP-1B @ 10 μm” value turned out to be 13%.

The target in another test is EGFRTK (Homo sapiens, UniProt P00533). The experiment in a line: EGFRTK inhibition. Format: biochemical. The note with it: % inhibition at 10 micromolar compound.
EGFRTK, sequence (P00533 25-1210): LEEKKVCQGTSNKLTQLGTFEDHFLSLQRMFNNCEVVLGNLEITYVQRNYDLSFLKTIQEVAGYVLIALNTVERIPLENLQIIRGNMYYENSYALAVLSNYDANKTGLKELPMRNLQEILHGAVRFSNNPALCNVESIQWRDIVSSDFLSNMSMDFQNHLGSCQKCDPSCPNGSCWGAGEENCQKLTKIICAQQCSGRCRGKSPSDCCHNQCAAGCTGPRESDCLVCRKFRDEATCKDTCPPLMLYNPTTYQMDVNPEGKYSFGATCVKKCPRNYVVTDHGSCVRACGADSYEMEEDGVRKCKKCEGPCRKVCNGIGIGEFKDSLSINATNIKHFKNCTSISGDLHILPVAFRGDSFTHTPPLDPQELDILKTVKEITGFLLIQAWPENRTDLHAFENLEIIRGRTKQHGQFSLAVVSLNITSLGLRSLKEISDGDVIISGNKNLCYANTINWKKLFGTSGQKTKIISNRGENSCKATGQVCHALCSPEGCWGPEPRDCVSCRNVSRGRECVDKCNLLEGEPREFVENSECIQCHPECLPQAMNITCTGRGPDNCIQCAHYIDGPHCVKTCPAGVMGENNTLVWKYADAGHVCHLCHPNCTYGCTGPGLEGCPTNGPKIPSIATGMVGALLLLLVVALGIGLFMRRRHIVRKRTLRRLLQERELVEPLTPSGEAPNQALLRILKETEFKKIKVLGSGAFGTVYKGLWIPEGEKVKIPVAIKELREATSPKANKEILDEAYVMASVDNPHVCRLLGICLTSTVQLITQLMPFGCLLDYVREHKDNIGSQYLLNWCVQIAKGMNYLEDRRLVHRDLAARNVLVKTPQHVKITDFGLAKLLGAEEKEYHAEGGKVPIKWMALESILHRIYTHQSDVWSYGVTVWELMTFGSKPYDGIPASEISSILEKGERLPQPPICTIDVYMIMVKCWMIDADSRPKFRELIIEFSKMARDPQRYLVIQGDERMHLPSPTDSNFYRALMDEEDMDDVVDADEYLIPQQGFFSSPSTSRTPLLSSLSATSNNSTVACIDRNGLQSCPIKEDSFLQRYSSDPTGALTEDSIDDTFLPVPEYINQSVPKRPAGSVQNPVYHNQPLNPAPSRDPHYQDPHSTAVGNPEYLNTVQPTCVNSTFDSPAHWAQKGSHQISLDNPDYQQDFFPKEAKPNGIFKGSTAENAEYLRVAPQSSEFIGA
From the text: as §1
For the compound `O=C(NCc1ccc(CO)cc1)c1cc2cc(F)ccc2[nH]1` [Compound 1oooo], the “EGFRTK @ 10 μm” value came to 33%.

Consider `COc1ccc(NC(=O)c2cc3cc(F)ccc3[nH]2)cc1CO` [Compound 1cccc], for which the “EGFRTK @ 10 μm” value is 19%.

A further test has as its target p56 lck (Homo sapiens, UniProt P06239). The experiment in a line: p56 lck inhibition. Format: biochemical. The note with it: % inhibition at 10 micromolar compound.
From the text: as §1
As to `O=C(NCc1ccc(CO)cc1)c1cc2cc(F)ccc2[nH]1` [Compound 1oooo], the “p56 LcK @ 10 μm” value worked out at 10%.

Turning to `COc1cc(OC)c(CNC(=O)c2cc3cc(F)ccc3[nH]2)c(OC)c1` [Compound 1rr], the “p56 LcK @ 10 μm” value is given as 12%.

With `O=C(Nc1ccccc1O)c1cc2cc(F)ccc2[nH]1` [Compound 1n], the “p56 LcK @ 10 μm” value is recorded as 12%.

On to `O=C(Nc1cc(O)cc(O)c1)c1cc2cc(F)ccc2[nH]1` [Compound 1r], for which the “p56 LcK @ 10 μm” value is reported as 11%.
